Measured values published in US10653680B2, “Treatment of impulsivity-related disorders” (OXFORD UNIVERSITY INNOVATION LIMITED, priority 2016, dated 2020).

Columns and labels:
rats [1] = assay: 5 Choice Serial Reaction Time Task (5-CSRTT); format: in vivo, rats (males; Long Evans)
Method: (§1) Testing was carried out in Vancouver (Canada) using rats (males; Long Evans from Charles River) which were given at least two weeks to acclimatise to the animal facility. They were housed in pairs on a 12 hour reverse light-dark cycle (lights off at 7 am). In the second week of acclimatisation, rats were handled briefly each day. […] For each task, there was then a habituation session to the operant boxes before training began.
(§2) Ebselen, cocaine and 2,5-dimethoxy-4-iodoamphetamine (DOI) were obtained from Sigma Aldrich, and MDL 100,907 was obtained from Tocris. Ebselen was dissolved in 0.5M DMSO and made up to injection volume (8 ml/kg) using 4% cyclodextrin. Cocaine and DOI were dissolved in 0.9% saline. MDL 100,907 was dissolved in 0.9% saline and the pH was adjusted to 6.25 using 1M NaOH and 0.1M HCl.
(§3) All data for the cognitive tasks are presented as mean+SEM change from baseline: • performance on drug day−performance on the previous day
The data were analysed with repeated measures ANOVA with dose as a within-subject factor. Where appropriate, post-hoc analysis was performed using Student's paired t-test.
This test was performed as described previously (Bari et al., Nature Protocols, 2008, 3(5), 759-767; Robbins, Psychopharmacology, 2002, 163(3), 362-380).
Fourteen rats were trained to respond to brief visual cues presented in one of five target areas with an inter-trial interval of 5 seconds. On the day of testing in the presence of ebselen, the inter-trial interval was lengthened to 7 seconds to cause a reliable increase in premature responding.
Ebselen and vehicle were administered by intraperitoneal (i.p.) injection 1 hour prior to testing. Three doses of ebselen (2, 5 or 10 mg/kg) were studied, administration being in a random order that was determined by a Latin square design. Rats were run five days a week, with the treatment day falling on day three.
Following ebselen, 3 doses of MDL 100,907 (0.01, 0.03 and 0.1 mg/kg, i.p.) were tested in a Latin square design with the first injection occurring one week after the final injection of ebselen. MDL 100,907 is a selective 5-HT2A antagonist. Rats were similarly run five days a week with injections falling on the third day, and the lengthened inter-trial interval was used only on the drug-administration day.
The Latin square design (for both the 5-CSRTT and rGT experiments) was counterbalanced, based on performance in the last training day of each task. A one week wash-out period was given between drug-administration days. A baseline session was performed both the day before and the day after treatment to ensure stable off-drug performance.

rats [2] = assay: 5-CSRTT, stimulant (cocaine)-induced responding; format: in vivo, rats (males; Long Evans)
Method: as §1, §2, §3
In experiments investigating the effect of ebselen on cocaine and DOI, data were analysed with a two-way ANOVA with ebselen and cocaine/DOI as between-subject factors. If an interaction was detected, this was further investigated using simple main effects analysis. All analyses were conducted using SPSS 22 with p<0.05 considered significant.
To assess the effect of ebselen on stimulant-induced responding, ebselen (10 mg/kg) or vehicle was administered 1 hour prior to cocaine (15 mg/kg i.p.), which in turn was administered 10 minutes prior to testing. Treatments were administered using according to a Latin square design. The inter-trial interval for these sessions was 5 seconds. Two rats were excluded from the data due to increasing levels of omissions across all days of this portion of the study. The experiment was repeated using 0.03 mg/kg MDL 100,907 instead of ebselen.

`COc1cccc([C@H](O)C2CCN(CCc3ccc(F)cc3)CC2)c1OC` [MDL 100,907, reference compound] was tested, and the “accuracy (decrease seen following vehicle injection)” value (rats [1]; MDL 100,907 0.01 mg/kg (second mention), p=0.027) was “significantly negated the decrease in accuracy”, the “accuracy (decrease seen following vehicle injection)” value (rats [1]; MDL 100,907 0.01 mg/kg i.p., p=0.020) was “significantly negated the decrease in accuracy” and the “accuracy (decrease seen following vehicle injection)” value (rats [1]; MDL 100,907 0.03 mg/kg i.p., p=0.052) was “trend”. For the same compound, the “other parameters of the 5-CSRTT” value (rats [1]; MDL 100,907 0.01, 0.03, 0.1 mg/kg i.p., p=0.170-0.872) was “no detectable effects”, the premature responding (rats [1]; MDL 100,907 at all dosage levels (0.01, 0.03 and 0.1 mg/kg i.p.) vs vehicle, p=0.008, 0.009, 0.001) was “decreased premature responding” and the “cocaine-induced increases in premature responding” value (rats [2]; MDL 100,907 0.03 mg/kg before cocaine 15 mg/kg i.p., p=0.282) was “did not reduce cocaine-induced increases in premature responding”. For the same compound, the correct response latency (rats [2]; MDL 100,907 0.03 mg/kg, cocaine experiment, p=0.072) was “increased trend”.
